SMILES strings stand for the structures. ≈ marks a conversion by molar mass, not a printed value. Calls of active or inactive are those of the source. The rule behind the calls is not given here. A value given as a limit tells only on which side of the number the result lay.

The test system of assay [1] is Moraxella catarrhalis. Nature of the assay: Bactericidal activity against serine beta-lactamase producing Moraxella catarrhalis incubated in MH broth for 24 to 48 hrs by microbroth dilution method. The class given is functional. Background: Dilution methods test growth across graded concentrations, often in twofold steps.
Assay [2] relates to Mycobacterium tuberculosis. The experiment in a line: Antitubercular activity against serine beta-lactamase producing Mycobacterium tuberculosis H37Rv after 14 days in presence of GAST/Fe medium by eleven fold serial dilution method. The class given is functional. Particulars: 336 h.
Assay [3] relates to Mycobacterium tuberculosis. The experiment in a line: Antitubercular activity against clinical drug sensitive Mycobacterium tuberculosis K14b00DS after 14 days in presence of middlebrook 7H9/BSA medium by eleven fold serial dilution method. The class given is functional. Particulars: 336 h.
Assay [4] deals with Mycobacterium tuberculosis. The experiment in a line: Antitubercular activity against serine beta-lactamase producing Mycobacterium tuberculosis H37Rv after 14 days in presence of middlebrook 7H9/BSA medium by eleven fold serial dilution method. The class given is functional. Particulars: 336 h.
Assay [5] deals with Mycobacterium tuberculosis. The experiment in a line: Bactericidal activity against non-replicating persistant form of Mycobacterium tuberculosis H37Rv assessed as minimum anaerobicidal concentration by measuring log reduction in viable microbe number at 200 ug/ml preincubated for 7 days in anaerobic condition post adaptation to decreasing oxygen levels and further incubated in middlebrook 7H11/BSA supplemented with ODAC for 4 to 5 weeks by serial dilution based assay. The class given is functional.

The test system of assay [6] is Mycobacterium tuberculosis. The experiment in a line: Bactericidal activity against serine beta-lactamase producing Mycobacterium tuberculosis H37Rv assessed as reduction in microbial cell number at MIC preincubated in middlebrook 7H9 medium for 7 days and further incubated in middlebrook 7H11/BSA supplemented with OADC for 3 weeks by serial dilution based colony counting method. The class given is functional, organism-based.

The test system of assay [7] is Mycobacterium tuberculosis. The experiment in a line: Bactericidal activity against serine beta-lactamase producing Mycobacterium tuberculosis H37Rv assessed as induction of microbial kill at MIC preincubated in middlebrook 7H9 medium for 7 days and further incubated in middlebrook 7H11/BSA supplemented with OADC for 3 weeks by serial dilution based colony counting method. The class given is functional.

For assay [8], the system named is Mycobacterium tuberculosis. The experiment in a line: Antitubercular activity against serine beta-lactamase producing Mycobacterium tuberculosis H37Rv after 14 days in presence of Chol/BSA medium by eleven fold serial dilution method. The class given is functional. To be noted: 336 h.
Assay [9] has as its system Mycobacterium tuberculosis. The experiment in a line: Antitubercular activity against serine beta-lactamase producing Mycobacterium tuberculosis H37Rv after 14 days in presence of Glu/Cas medium by eleven fold serial dilution method. The class given is functional. Particulars: 336 h.
Assay [10] deals with Mycobacterium tuberculosis. The experiment in a line: Antitubercular activity against serine beta-lactamase producing Mycobacterium tuberculosis H37Rv after 14 days in presence of DPPC/BSA medium by eleven fold serial dilution method. The class given is functional. To be noted: 336 h.
The test system of assay [11] is Mycobacterium tuberculosis. The experiment in a line: Antitubercular activity against serine beta-lactamase producing Mycobacterium tuberculosis H37Rv after 14 days in presence of Glu/BSA medium by eleven fold serial dilution method. The class given is functional. Particulars: 336 h.
Assay [12] concerns Mycobacterium tuberculosis. Nature of the assay: Antitubercular activity against serine beta-lactamase producing Mycobacterium tuberculosis H37Rv after 14 days in presence of DPCC/Cas medium by eleven fold serial dilution method. The class given is functional. Particulars: 336 h.

For the compound `C[C@@H](NC(=O)N1C(=O)C[C@@H]1Sc1ccc(F)cc1F)c1ccccc1`, in assay [1], the MBC was found to be 50 µg/mL (≈ 138 µM). Moreover, the MIC in [1] was 50 µg/mL (≈ 138 µM); in assay [3], 25 µg/mL. Moreover, the figures for the MIC99 in assay [2] and in assay [4] were 0.7 µg/mL and 25 µg/mL, respectively.

For `NNC(=O)c1ccncc1` [ISONIAZID], the MIC99 in [2] came to 0.02 µg/mL; in assay [4] it was 0.07 µg/mL. Moreover, the MIC in [3] was 0.08 µg/mL.

`C[C@@H](NC(=O)N1C(=O)C[C@H]1Sc1c(F)c(F)c(F)c(F)c1F)c1ccccc1`: the Activity in assay [5] stood at 1 log10CFU/ml. Besides, the MBC in [1] turned out to be 3.1 µg/mL (≈ 7.45 µM). The lowest concentration to inhibit growth in assay [1] (MIC) was 3.1 µg/mL (≈ 7.45 µM). In addition, the MIC99 in assay [2] was 0.3 µg/mL; in assay [4], > 100 µg/mL. The result in assay [6] was Active. Also, the LCK in assay [7] is reported as <3.

`O=C1CC(Sc2ccc(F)c(F)c2)N1` (racemic): the result in assay [6] was Active. For the same compound, the MIC99 in assay [4] was found to be 50 µg/mL. For the same compound, the LCK in assay [7] was <3.

As to `O=C1CC(Sc2cccc(C(F)(F)F)c2)N1` (racemic), the MIC was 12.5 µg/mL in assay [8]; 1.5 µg/mL (≈ 6.07 µM) in [1]; 12.5 µg/mL in assay [9]; 12.5 µg/mL in [10]; 25 µg/mL in assay [11]; 0.78 µg/mL in [12]. The MBC in assay [1] is 1.5 µg/mL (≈ 6.07 µM). Moreover, the MIC99 in assay [4] is 25 µg/mL.

Take `O=C1CC(Sc2ccc(F)cc2Cl)N1C(=O)NCc1ccccc1` (racemic): the MIC in assay [8] was 18.8 µg/mL; in assay [9] it was 1.5 µg/mL; in assay [10], 12.5 µg/mL; in assay [11], 25 µg/mL; in assay [12] it was 0.78 µg/mL. This compound had an MBC in assay [1] of 12.5 µg/mL (≈ 34.3 µM). Also, the MIC99 in assay [2] amounted to 0.3 µg/mL; in [4], 37.5 µg/mL.

In the case of `C[C@H](NC(=O)N1C(=O)C[C@H]1Sc1ccc(F)cc1F)c1ccccc1`, the MBC in [1] was 50 µg/mL (≈ 138 µM). Also, the MIC in assay [1] stood at 50 µg/mL (≈ 138 µM); in assay [3] it was 50 µg/mL. Further, the MIC99 is 0.7 µg/mL in assay [2] and 50 µg/mL in assay [4].

On to `O=C1CC(Sc2ccc(C(F)(F)F)cc2)N1C(=O)NCc1ccccc1` (racemic), for which the MIC in [8] was 25 µg/mL; in assay [1] it was 1.6 µg/mL (≈ 4.21 µM); in [9] it was 1.5 µg/mL; in [3] it was 25 µg/mL; in assay [10], 25 µg/mL; in assay [11] it was 25 µg/mL. The MIC in assay [12] came out at 0.78 µg/mL. The MIC99 in assay [4] amounted to 12.5 µg/mL.

In [1], `C[C@H](NC(=O)N1C(=O)C[C@H]1Sc1c(F)c(F)c(F)c(F)c1F)c1ccccc1` returned an MBC of 50 µg/mL (≈ 120 µM) and an MIC of 50 µg/mL (≈ 120 µM). Further, the MIC99 in assay [2] is 0.7 µg/mL. Further, the outcome in [6] was Active. Moreover, the MIC99 in assay [4] is 100 µg/mL. The LCK in assay [7] is given as <3.

As to `C[C@@H](NC(=O)N1C(=O)C[C@H]1Sc1ccc(F)cc1F)c1ccccc1`, in assay [1], the MBC was found to be 12.5 µg/mL (≈ 34.5 µM). Further, the MIC in assay [1] worked out at 12.5 µg/mL (≈ 34.5 µM); in assay [3], 25 µg/mL. The MIC99 in [2] is 0.3 µg/mL; in assay [4], 50 µg/mL.

As for `C[C@@H](NC(=O)N1C(=O)C[C@@H]1Sc1c(F)c(F)c(F)c(F)c1F)c1ccccc1`, in assay [5], the Activity was 1 log10CFU/ml. In assay [1], this compound returned an MBC of 12.5 µg/mL (≈ 30 µM) and an MIC of 12.5 µg/mL (≈ 30 µM). Moreover, the result in assay [6] was Active. Moreover, the MIC99 in [4] is > 100 µg/mL. Also, in assay [7], the LCK was <3.

Regarding `O=C1CC(Sc2c(F)c(F)c(F)c(F)c2F)N1C(=O)NCc1ccccc1` (racemic), the MIC in assay [8] is 25 µg/mL; in assay [9], 1.5 µg/mL; in assay [10], 25 µg/mL; in assay [11] it was 6.25 µg/mL; in assay [12] it was 0.78 µg/mL. The same compound showed an MBC in [1] of 6.2 µg/mL (≈ 15.4 µM). In addition, the result in [6] was Active. For the same compound, the MIC99 in assay [4] is 12.5 µg/mL. Also, the LCK in assay [7] is <3.

Turning to `C[C@H](NC(=O)N1C(=O)C[C@@H]1Sc1ccc(C(F)(F)F)cc1)c1ccccc1`, in [1], the MBC came to 200 µg/mL (≈ 507 µM) and the MIC is 200 µg/mL (≈ 507 µM). The MIC in assay [3] came to 25 µg/mL. For the same compound, the MIC99 in assay [4] came out at 25 µg/mL.

In assay [1], `C[C@H](NC(=O)N1C(=O)C[C@@H]1Sc1c(F)c(F)c(F)c(F)c1F)c1ccccc1` came in with an MBC of 6.2 µg/mL (≈ 14.9 µM) and an MIC of 6.2 µg/mL (≈ 14.9 µM). Also, the MIC99 in assay [2] worked out at 0.7 µg/mL. Further, in [4], the MIC99 was determined as 100 µg/mL.

Broadly, the MBC is the lowest tested concentration that kills the bacteria rather than only halting them. A high value points to weaker bactericidal potency. In general, MIC refers to the lowest concentration found to suppress growth. The MIC99 is the lowest concentration that inhibits either 99% of growth or 99% of the strains tested, depending on the study.

The record behind these values is ChEMBL document CHEMBL4304800, “C4-Phenylthio β-lactams: Effect of the chirality of the β-lactam ring on antimicrobial activity” (2019).
